{"source": "paper PMC10410440", "about": "“Preclinical PK investigation of a novel IDO1/TDO dual inhibitor—SHR9146 in mouse plasma and tissues by LC-MS/MS” (Frontiers in Oncology, 2023)", "assay": "Tissue distribution of SHR9146 in mice after oral gavage of 40 mg/kg", "assay_type": "in vivo, ICR mice", "conditions": "female, 40 mg/kg oral gavage; for concentration at 1 h / concentration at 3 h / concentration at 6 h / concentration at 24 h: ICR, mouse, po", "method": "ICR mice with body weight 16–26 g were supplied by Shanghai Lingchang Biotechnology Co., Ltd. (animal breeding license number SCXK (Shanghai) 2013-0018) and housed at Shanghai Institute of Materia Medica, Chinese Academy of Sciences [animal use license number SYXK (Shanghai) 2015-0027]. The mice used in this study were fasted overnight for 12 h but had free access to water. Food was supplied 4 h post-dose. All experiments in this study were conducted in accordance with the Guidelines for the Care and Use of Laboratory Animals of Shanghai Institute of Materia Medica, Chinese Academy of Sciences.\nAnother set of 30 mice were randomly assigned into five groups with equal numbers, males and females, for tissue distribution study with oral gavage at a single dose of 40 mg/kg at predetermined different time points: pre-dose and post dose at 1, 3, 6, and 24 h, respectively. The whole brain, heart, liver, spleen, lung, kidney, bladder, pancreas, testis, ovary, uterus, stomach, small intestine, adrenal gland, skin, skeletal muscle, thyroid gland, and abdominal fat tissues as well as the whole blood and plasma samples were harvested. Tissue samples were washed with 0.9% sodium chloride solution to remove the residual blood or contents, blotted on a filter paper, and stored at −70°C prior to the analysis.\nProtein precipitation was selected for the pretreatment of both the plasma and the tissue homogenate prepared after thawing at room temperature, cut into pieces, and homogenized with a quintuple methanol–water mixture (1:1, v/v) for each tissue sample.\nBriefly as follows, an aliquot of 25-μL plasma or tissue homogenate was spiked with 100 μL of internal standard solution (1 μg/mL for plasma, 0.2 μg/mL for tissue homogenate) and 300 μL of methanol added and vortex mixed for 60 s. The mixture was then centrifuged at 14,000 rpm at 4°C for 5.0 min, and the supernatant was diluted with methanol–water (4:1, v/v) in a ratio of 1:9 for the plasma or 1:1 for the tissue homogenate, and 5 μL of the resulting solution was injected for the LC-MS/MS analysis.\nAfter oral administration of 40 mg/kg SHR9146, samples in different tissues at predetermined time points (pre-drug administration, post-drug administration at 1, 3, 6, and 24 h) were collected and prepared for the analysis. The drug concentrations of SHR9146 (μg/g or μg/mL) were determined for each mouse, and the mean and standard deviation were further obtained (Table S7).", "key": {"[1]": {"conditions": "24 h, individual mice, 40 mg/kg"}}, "note": "Several values for one entry are separate records, joined by “and”; a condition that tells them apart may be missing. Equal values may be shown once. Read-outs that look alike come from different tables or passages of the source.", "data": [{"compound": "OCCn1cc(-c2ccc(N3CCC([C@H]4c5c(F)cccc5-c5cncn54)CC3)cc2)cn1", "note": "[SHR9146]", "values": [{"measurement": "SHR9146 concentration in Bladder", "setting": "1 h, individual mice, 40 mg/kg", "result": "21.036 µg/g and 16.223 µg/g"}, {"measurement": "SHR9146 concentration in Kidney", "setting": "1 h, individual mice, 40 mg/kg", "result": "18.490 µg/g and 14.219 µg/g"}, {"measurement": "SHR9146 concentration in Liver", "setting": "1 h, individual mice, 40 mg/kg", "result": "26.622 µg/g and 23.393 µg/g"}, {"measurement": "SHR9146 concentration in Lung", "setting": "1 h, individual mice, 40 mg/kg", "result": "20.029 µg/g and 15.217 µg/g"}, {"measurement": "SHR9146 concentration in Pancreas", "setting": "1 h, individual mice, 40 mg/kg", "result": "22.508 µg/g and 15.532 µg/g"}, {"measurement": "SHR9146 concentration in Small intestine", "setting": "1 h, individual mice, 40 mg/kg", "result": "22.755 µg/g and 23.199 µg/g"}, {"measurement": "SHR9146 concentration in Bladder", "setting": "3 h, individual mice, 40 mg/kg", "result": "10.878 µg/g and 14.604 µg/g and 5.984 µg/g"}, {"measurement": "SHR9146 concentration in Kidney", "setting": "3 h, individual mice, 40 mg/kg", "result": "12.786 µg/g and 17.400 µg/g and 8.011 µg/g"}, {"measurement": "SHR9146 concentration in Liver", "setting": "3 h, individual mice, 40 mg/kg", "result": "20.374 µg/g and 27.066 µg/g and 11.815 µg/g"}, {"measurement": "SHR9146 concentration in Lung", "setting": "3 h, individual mice, 40 mg/kg", "result": "12.019 µg/g and 16.499 µg/g and 48.938 µg/g"}, {"measurement": "SHR9146 concentration in Pancreas", "setting": "3 h, individual mice, 40 mg/kg", "result": "13.466 µg/g and 17.374 µg/g and 6.520 µg/g"}, {"measurement": "SHR9146 concentration in Small intestine", "setting": "3 h, individual mice, 40 mg/kg", "result": "22.446 µg/g and 12.038 µg/g"}, {"measurement": "SHR9146 concentration in Adrenal gland", "setting": "6 h, individual mice, 40 mg/kg", "result": "4.009 µg/g and 0.427 µg/g and 1.219 µg/g"}, {"measurement": "SHR9146 concentration in Bladder", "setting": "6 h, individual mice, 40 mg/kg", "result": "1.685 μg/g and BLQ and 0.201 μg/g"}, {"measurement": "SHR9146 concentration in Brain", "setting": "6 h, individual mice, 40 mg/kg", "result": "BLQ"}, {"measurement": "SHR9146 concentration in Kidney", "setting": "6 h, individual mice, 40 mg/kg", "result": "3.007 µg/g and 0.546 µg/g and 0.744 µg/g"}, {"measurement": "SHR9146 concentration in Liver", "setting": "6 h, individual mice, 40 mg/kg", "result": "4.132 µg/g and 0.621 µg/g and 1.090 µg/g"}, {"measurement": "SHR9146 concentration in Lung", "setting": "6 h, individual mice, 40 mg/kg", "result": "2.446 µg/g and 0.717 µg/g and 0.984 µg/g"}, {"measurement": "SHR9146 concentration in Ovary", "setting": "6 h, individual mice, 40 mg/kg", "result": "BLQ"}, {"measurement": "SHR9146 concentration in Pancreas", "setting": "6 h, individual mice, 40 mg/kg", "result": "1.674 µg/g and 0.089 µg/g and 0.150 µg/g"}, {"measurement": "SHR9146 concentration in Skeletal muscle", "setting": "6 h, individual mice, 40 mg/kg", "result": "BLQ"}, {"measurement": "SHR9146 concentration in Small intestine", "setting": "6 h, individual mice, 40 mg/kg", "result": "1.815 µg/g and 0.395 µg/g and 0.288 µg/g"}, {"measurement": "SHR9146 concentration in Spleen", "setting": "6 h, individual mice, 40 mg/kg", "result": "BLQ"}, {"measurement": "SHR9146 concentration in Uterus", "setting": "6 h, individual mice, 40 mg/kg", "result": "BLQ"}, {"measurement": "SHR9146 concentration in Whole blood", "setting": "6 h, individual mice, 40 mg/kg", "result": "BLQ"}, {"measurement": "SHR9146 concentration in Abdominal fat", "setting": "24 h, individual mice", "result": "BLQ"}, {"measurement": "SHR9146 concentration in Bladder", "setting": "24 h, individual mice", "result": "BLQ"}, {"measurement": "SHR9146 concentration in Brain", "setting": "24 h, individual mice", "result": "BLQ"}, {"measurement": "SHR9146 concentration in Heart", "setting": "24 h, individual mice", "result": "BLQ"}, {"measurement": "SHR9146 concentration in Kidney", "setting": "24 h, individual mice", "result": "BLQ"}, {"measurement": "SHR9146 concentration in Ovary", "setting": "24 h, individual mice", "result": "BLQ"}, {"measurement": "SHR9146 concentration in Pancreas", "setting": "24 h, individual mice", "result": "BLQ"}, {"measurement": "SHR9146 concentration in Plasma", "setting": "24 h, individual mice", "result": "BLQ"}, {"measurement": "SHR9146 concentration in Skeletal muscle", "setting": "24 h, individual mice", "result": "BLQ"}, {"measurement": "SHR9146 concentration in Skin", "setting": "24 h, individual mice", "result": "BLQ"}, {"measurement": "SHR9146 concentration in Small intestine", "setting": "24 h, individual mice", "result": "BLQ"}, {"measurement": "SHR9146 concentration in Spleen", "setting": "24 h, individual mice", "result": "BLQ"}, {"measurement": "SHR9146 concentration in Uterus", "setting": "24 h, individual mice", "result": "BLQ"}, {"measurement": "SHR9146 concentration in Whole blood", "setting": "24 h, individual mice", "result": "BLQ"}, {"measurement": "SHR9146 concentration in thyroid gland", "setting": "24 h, individual mice", "result": "BLQ"}, {"measurement": "SHR9146 concentration in Adrenal gland", "setting": "[1]", "result": 0.185, "unit": "µg/g"}, {"measurement": "SHR9146 concentration in Liver", "setting": "[1]", "result": "BLQ and 0.058 μg/g"}, {"measurement": "SHR9146 concentration in Lung", "setting": "[1]", "result": "0.151 µg/g and 0.191 µg/g"}, {"measurement": "concentration at 1 h", "setting": "abdominal fat, 40 mg/kg, 1 h, Mean (n=3), read-out: SHR9146 concentration in Abdominal fat", "result": 13500, "unit": "ng/g"}, {"measurement": "concentration at 1 h", "setting": "abdominal fat, 40 mg/kg, 1 h, individual mice, read-out: SHR9146 concentration in Abdominal fat", "result": 11600, "unit": "ng/g"}, {"measurement": "concentration at 3 h", "setting": "abdominal fat, 40 mg/kg, 3 h, Mean (n=3), read-out: SHR9146 concentration in Abdominal fat", "result": 8930, "unit": "ng/g"}, {"measurement": "concentration at 6 h", "setting": "abdominal fat, 40 mg/kg, 6 h, Mean (n=3), read-out: SHR9146 concentration in Abdominal fat", "result": 416, "unit": "ng/g"}, {"measurement": "concentration at 1 h", "setting": "adrenal gland, 40 mg/kg, 1 h, Mean (n=3), read-out: SHR9146 concentration in Adrenal gland", "result": 36600, "unit": "ng/g"}, {"measurement": "concentration at 1 h", "setting": "adrenal gland, 40 mg/kg, 1 h, individual mice, read-out: SHR9146 concentration in Adrenal gland", "result": 31300, "unit": "ng/g"}, {"measurement": "concentration at 3 h", "setting": "adrenal gland, 40 mg/kg, 3 h, Mean (n=3), read-out: SHR9146 concentration in Adrenal gland", "result": 27800, "unit": "ng/g"}, {"measurement": "concentration at 6 h", "setting": "adrenal gland, 40 mg/kg, 6 h, Mean (n=3), read-out: SHR9146 concentration in Adrenal gland", "result": 1880, "unit": "ng/g"}, {"measurement": "concentration at 24 h", "setting": "adrenal gland, 40 mg/kg, 24 h, Mean (n=3), read-out: SHR9146 concentration in Adrenal gland", "result": 195, "unit": "ng/g"}, {"measurement": "concentration at 24 h", "setting": "adrenal gland, 40 mg/kg, 24 h, individual mice, read-out: SHR9146 concentration in Adrenal gland", "result": 214, "unit": "ng/g"}, {"measurement": "concentration at 1 h", "setting": "bladder, 40 mg/kg, 1 h, Mean (n=3), read-out: SHR9146 concentration in Bladder", "result": 16800, "unit": "ng/g"}, {"measurement": "concentration at 1 h", "setting": "bladder, 40 mg/kg, 1 h, individual mice, read-out: SHR9146 concentration in Bladder", "result": 13200, "unit": "ng/g"}, {"measurement": "concentration at 3 h", "setting": "bladder, 40 mg/kg, 3 h, Mean (n=3), read-out: SHR9146 concentration in Bladder", "result": 10500, "unit": "ng/g"}, {"measurement": "concentration at 6 h", "setting": "bladder, 40 mg/kg, 6 h, Mean (n=3), read-out: SHR9146 concentration in Bladder", "result": 629, "unit": "ng/g"}, {"measurement": "concentration at 1 h", "setting": "brain, 40 mg/kg, 1 h, Mean (n=3), read-out: SHR9146 concentration in Brain", "result": 2370, "unit": "ng/g"}, {"measurement": "concentration at 1 h", "setting": "brain, 40 mg/kg, 1 h, individual mice, read-out: SHR9146 concentration in Brain", "result": 2190, "unit": "ng/g"}, {"measurement": "concentration at 3 h", "setting": "brain, 40 mg/kg, 3 h, Mean (n=3), read-out: SHR9146 concentration in Brain", "result": 1560, "unit": "ng/g"}, {"measurement": "concentration at 6 h", "setting": "brain, 40 mg/kg, 6 h, Mean (n=3), read-out: SHR9146 concentration in Brain", "result": 87, "unit": "ng/g"}, {"measurement": "concentration at 6 h", "setting": "brain, 40 mg/kg, 6 h, individual mice, read-out: SHR9146 concentration in Brain", "result": 261, "unit": "ng/g"}, {"measurement": "concentration at 1 h", "setting": "heart, 40 mg/kg, 1 h, Mean (n=3), read-out: SHR9146 concentration in Heart", "result": 9540, "unit": "ng/g"}, {"measurement": "concentration at 1 h", "setting": "heart, 40 mg/kg, 1 h, individual mice, read-out: SHR9146 concentration in Heart", "result": 7410, "unit": "ng/g"}, {"measurement": "concentration at 3 h", "setting": "heart, 40 mg/kg, 3 h, Mean (n=3), read-out: SHR9146 concentration in Heart", "result": 7040, "unit": "ng/g"}, {"measurement": "concentration at 6 h", "setting": "heart, 40 mg/kg, 6 h, Mean (n=3), read-out: SHR9146 concentration in Heart", "result": 334, "unit": "ng/g"}, {"measurement": "concentration at 1 h", "setting": "kidney, 40 mg/kg, 1 h, Mean (n=3), read-out: SHR9146 concentration in Kidney", "result": 15300, "unit": "ng/g"}]}]}
